Measured values from PubChem BioAssay (NCI).
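96-well plates; 48 h exposure; 5 concentrations. Endpoints by linear interpolation between flanking doses. Not reached: highest tested concentration assigned. GI50: concentration for 50% inhibition of growth. TGI marks complete inhibition of growth.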

Columns and labels:
Experiment in all cases: growth of human tumour cells (NCI), 48 h; in the data active = GI50 below about 0.43 µM; inactive = the rest
786-0 renal = system: 786-0 renal
A498 renal = system: A498 renal
A549 NSCLC = system: A549 NSCLC
ACHN renal = system: ACHN renal
BT-549 breast = system: BT-549 breast
CAKI-1 renal = system: CAKI-1 renal
CCRF-CEM leukemia = system: CCRF-CEM leukemia
COLO 205 colon = system: COLO 205 colon
DU-145 prostate = system: DU-145 prostate
EKVX NSCLC = system: EKVX NSCLC
HCC-2998 colon = system: HCC-2998 colon
HCT-116 colon = system: HCT-116 colon
HCT-15 colon = system: HCT-15 colon
HL-60(TB) leukemia = system: HL-60(TB) leukemia
HOP-62 NSCLC = system: HOP-62 NSCLC
HOP-92 NSCLC = system: HOP-92 NSCLC
HS 578T breast = system: HS 578T breast
HT29 colon = system: HT29 colon
IGROV1 ovarian = system: IGROV1 ovarian
K-562 leukemia = system: K-562 leukemia
KM12 colon = system: KM12 colon
LOX IMVI melanoma = system: LOX IMVI melanoma
M14 melanoma = system: M14 melanoma
MALME-3M melanoma = system: MALME-3M melanoma
MCF7 breast = system: MCF7 breast
MDA-MB-231 breast = system: MDA-MB-231 breast
MDA-MB-435 = system: MDA-MB-435
MDA-MB-468 breast = system: MDA-MB-468 breast
MOLT-4 leukemia = system: MOLT-4 leukemia
NCI-H226 lung = system: NCI-H226 lung
NCI-H23 lung = system: NCI-H23 lung
NCI-H460 lung = system: NCI-H460 lung
NCI-H522 lung = system: NCI-H522 lung
NCI/ADR-RES ovarian = system: NCI/ADR-RES ovarian
OVCAR-3 ovarian = system: OVCAR-3 ovarian
OVCAR-4 ovarian = system: OVCAR-4 ovarian
OVCAR-5 ovarian = system: OVCAR-5 ovarian
OVCAR-8 ovarian = system: OVCAR-8 ovarian
PC-3 prostate = system: PC-3 prostate
RPMI-8226 leukemia = system: RPMI-8226 leukemia
RXF 393 renal = system: RXF 393 renal
SF-268 CNS = system: SF-268 CNS
SF-295 CNS = system: SF-295 CNS
SF-539 CNS = system: SF-539 CNS
SK-MEL-2 melanoma = system: SK-MEL-2 melanoma
SK-MEL-28 melanoma = system: SK-MEL-28 melanoma
SK-MEL-5 melanoma = system: SK-MEL-5 melanoma
SK-OV-3 ovarian = system: SK-OV-3 ovarian
SN12C renal = system: SN12C renal
SNB-19 CNS = system: SNB-19 CNS
SNB-75 CNS = system: SNB-75 CNS
SR leukemia = system: SR leukemia
SW-620 colon = system: SW-620 colon
T-47D breast = system: T-47D breast
TK-10 renal = system: TK-10 renal
U251 CNS = system: U251 CNS
UACC-257 melanoma = system: UACC-257 melanoma
UACC-62 melanoma = system: UACC-62 melanoma
UO-31 renal = system: UO-31 renal

COc1cc(-c2nc3ccc(C)cc3[nH]2)ccc1OCc1nnc(-c2ccc(Br)cc2)o1
45.3 µM: TGI (OVCAR-8 ovarian)
52.9 µM: TGI (OVCAR-3 ovarian)
56.4 µM: TGI (SR leukemia)
27.5 µM: TGI (LOX IMVI melanoma)
56.8 µM: TGI (SNB-75 CNS)
45.4 µM: TGI (HS 578T breast)
85.7 µM: TGI (HCT-15 colon)
94.7 µM: TGI (TK-10 renal)
38.4 µM: TGI (OVCAR-4 ovarian)
33.1 µM: TGI (MDA-MB-231 breast)
45.5 µM: TGI (786-0 renal)
45 µM: TGI (NCI-H522 lung)
inactive: GI50 (786-0 renal) 16.6 µM | GI50 (A498 renal) 30.3 µM | GI50 (A549 NSCLC) 31 µM | GI50 (ACHN renal) 27.2 µM | GI50 (BT-549 breast) 21.3 µM | GI50 (CAKI-1 renal) 25.5 µM | GI50 (CCRF-CEM leukemia) 28.3 µM | GI50 (COLO 205 colon) 27.1 µM | GI50 (DU-145 prostate) 51.7 µM | GI50 (EKVX NSCLC) 18.9 µM | GI50 (HCC-2998 colon) 26.2 µM | GI50 (HCT-116 colon) 25.4 µM | GI50 (HCT-15 colon) 12.2 µM | GI50 (HL-60(TB) leukemia) 18.6 µM | GI50 (HOP-62 NSCLC) 28.4 µM | GI50 (HOP-92 NSCLC) 15.6 µM | GI50 (HS 578T breast) 12.5 µM | GI50 (HT29 colon) 10.8 µM | GI50 (IGROV1 ovarian) 16.3 µM | GI50 (K-562 leukemia) 15.4 µM | GI50 (KM12 colon) 55.1 µM | GI50 (LOX IMVI melanoma) 12.1 µM | GI50 (M14 melanoma) 40.2 µM | GI50 (MALME-3M melanoma) 12.4 µM | GI50 (MCF7 breast) 4.28 µM | GI50 (MDA-MB-231 breast) 14.4 µM | GI50 (MDA-MB-435) 18.7 µM | GI50 (MDA-MB-468 breast) 14 µM | GI50 (MOLT-4 leukemia) 6.86 µM | GI50 (NCI-H226 lung) 15.3 µM | GI50 (NCI-H23 lung) 32 µM | GI50 (NCI-H460 lung) 27.8 µM | GI50 (NCI-H522 lung) 17.1 µM | GI50 (NCI/ADR-RES ovarian) 19.3 µM | GI50 (OVCAR-3 ovarian) 20.5 µM | GI50 (OVCAR-4 ovarian) 14.3 µM | GI50 (OVCAR-5 ovarian) 57.2 µM | GI50 (OVCAR-8 ovarian) 16.1 µM | GI50 (PC-3 prostate) 40.3 µM | GI50 (RPMI-8226 leukemia) 8.54 µM | GI50 (RXF 393 renal) 20.4 µM | GI50 (SF-268 CNS) 36.1 µM | GI50 (SF-295 CNS) 14.9 µM | GI50 (SF-539 CNS) 12.6 µM | GI50 (SK-MEL-2 melanoma) 27.7 µM | GI50 (SK-MEL-28 melanoma) 22.2 µM | GI50 (SK-MEL-5 melanoma) 11.8 µM | GI50 (SK-OV-3 ovarian) 23.6 µM | GI50 (SN12C renal) 29.9 µM | GI50 (SNB-19 CNS) 52.3 µM | GI50 (SNB-75 CNS) 12.2 µM | GI50 (SR leukemia) 10.9 µM | GI50 (SW-620 colon) 32.8 µM | GI50 (T-47D breast) 7.33 µM | GI50 (TK-10 renal) 27.6 µM | GI50 (U251 CNS) 15.2 µM | GI50 (UACC-257 melanoma) 17.3 µM | GI50 (UACC-62 melanoma) 20.1 µM | GI50 (UO-31 renal) 11.1 µM
46.6 µM: TGI (UACC-257 melanoma)
53.3 µM: TGI (MDA-MB-435)
34.4 µM: TGI (T-47D breast)
55.4 µM: TGI (U251 CNS)
93.3 µM: TGI (A498 renal)
30.9 µM: TGI (MDA-MB-468 breast)
48.8 µM: TGI (BT-549 breast)
26.7 µM: TGI (SF-539 CNS)
59.8 µM: TGI (RXF 393 renal)
39 µM: TGI (HL-60(TB) leukemia)
53.6 µM: TGI (HT29 colon)
70.7 µM: TGI (MCF7 breast)
28.7 µM: TGI (MALME-3M melanoma)
34.8 µM: TGI (SF-295 CNS)
34.1 µM: TGI (SK-MEL-5 melanoma)
> 100 µM: TGI (A549 NSCLC) | TGI (ACHN renal) | TGI (CAKI-1 renal) | TGI (CCRF-CEM leukemia) | TGI (COLO 205 colon) | TGI (DU-145 prostate) | TGI (EKVX NSCLC) | TGI (HCC-2998 colon) | TGI (HCT-116 colon) | TGI (HOP-62 NSCLC) | TGI (HOP-92 NSCLC) | TGI (IGROV1 ovarian) | TGI (K-562 leukemia) | TGI (KM12 colon) | TGI (M14 melanoma) | TGI (MOLT-4 leukemia) | TGI (NCI-H226 lung) | TGI (NCI-H23 lung) | TGI (NCI-H460 lung) | TGI (NCI/ADR-RES ovarian) | TGI (OVCAR-5 ovarian) | TGI (PC-3 prostate) | TGI (RPMI-8226 leukemia) | TGI (SF-268 CNS) | TGI (SK-MEL-2 melanoma) | TGI (SK-MEL-28 melanoma) | TGI (SK-OV-3 ovarian) | TGI (SN12C renal) | TGI (SNB-19 CNS) | TGI (SW-620 colon) | TGI (UACC-62 melanoma) | TGI (UO-31 renal)
